The text below walks through data of US20240016777A1, “COMPOUNDS AND METHODS FOR TREATING VIRAL INFECTIONS” (priority 2020, published 2024).

In one series the target is SARS-CoV-2 M^pro (Severe acute respiratory syndrome coronavirus 2 (2019-nCoV) (SARS-CoV-2), UniProt P0DTD1). The experiment in a line: biochemical.
Series [1] addresses T1, Mpro (Severe acute respiratory syndrome coronavirus 2 (2019-nCoV) (SARS-CoV-2), UniProt P0DTD1). The experiment in a line: Label free mass spectrometry assay of Mpro substrate cleavage. In kind it is biochemical. To be noted: 50 μM concentration.
In series [2] the target is T1, Mpro. It counts as biochemical. The note with it: jump dilution.
The subject of series [3] is SARS-CoV-2. The experiment in a line: Vero E6-based SARS-CoV-2 replication assay (immunofluorescence of nucleocapsid protein). To be noted: Vero E6 cells. In kind it is cell-based.
Series [4] relates to SARS-CoV-2. To be noted: human ACE2 transgenic mouse, 50-200 mg/kg, crystal form; cited from earlier work.
In series [5] the test system is Vero E6 cells. Nature of the series: Toxicity in Vero E6 cells / cell culture.
The test system of series [6] is Vero E6 cells.
The mark [7] stands for this setting: compound at 17 μM, duplicates, 20 min pre-incubation, read-out: Activity (% enzyme activity by fluorescence relative to initial enzyme activity).
Setting [8] is: read-out: Activity (% enzyme activity by fluorescence relative to initial enzyme activity), compound at 17 μM, duplicates, 20 min pre-incubation.
Setting [9] is: compounds evaluated at 0.015-300 μM, read-out: IC50.

pIC50: −log10 of the molar value. Read-outs that look alike come from different tables or passages of the source.

The term pIC50 denotes the negative decadic logarithm of the IC50, by convention in mol/L.

As to `O=c1c(-c2c(O)cc(O)c3c(=O)cc(-c4ccc(O)cc4)oc23)c(-c2ccc(O)cc2)oc2cc(O)cc(O)c12` [3,8′-Biapigenin], the pIC50 against SARS-CoV-2 M^pro (IC50 for inhibition of Mpro) is 4.82 to 5.30. Moreover, on Mpro [1], the “Inhibition of Mpro activity (mass spectrometry)” value (“Inhibition of Mpro activity” for short) is “completely inhibited”.

For `O=c1cc(-c2ccc(O)c(-c3c(O)cc(O)c4c(=O)cc(-c5ccc(O)cc5)oc34)c2)oc2cc(O)cc(O)c12` [Amentoflavone], the negative logarithm of the IC50 (pIC50) is 5.10 on SARS-CoV-2 M^pro (IC50, compounds evaluated at 0.015-300 μM) and 4.82 to 5.30 against SARS-CoV-2 M^pro (IC50 for inhibition of Mpro). The remaining activity at 17 µM on SARS-CoV-2 M^pro (setting [7]) fell in the range of 10 to 80%. For the same molecule, on Mpro [1], the “Inhibition of Mpro activity” value is on record as “completely inhibited”. Besides, the “Reversibility of Mpro inhibition by dilution” value on Mpro [2] was “completely reversible”.

Turning to `O=c1cc(-c2ccccc2)oc2cc(O)c(O)c(O)c12` [Baicalein], the “Inhibition of SARS-CoV-2 replication (in words)” value (“Inhibition … (in words)” below) in the series on SARS-CoV-2 [3] is “antiviral activity”. In the series on SARS-CoV-2 [4], the “Body weight after SARS-CoV-2 infection” value is “prevented reduction in body weight” and the “Lung injury resulting from SARS-CoV-2 infection” value was “decreased lung injury”.

Turning to `COc1cc(-c2oc3cc(OC(C)=O)c(OC)c(OC(C)=O)c3c(=O)c2OC)ccc1OC(C)=O` [Jaceidin triacetate], on SARS-CoV-2 M^pro, the “Mpro inhibitory activity (comparison in words)” value (shortened to “Mpro inhibitory activity”) was “comparable to or better than the previously described Mpro inhibitors baicalein and myricetin”. Besides, on SARS-CoV-2 M^pro (setting [7]), the remaining activity at 17 µM is less than 10%. The pIC50 on SARS-CoV-2 M^pro (read-out: IC50 for inhibition of Mpro) was 4.82 to 5.30. Besides, the “Inhibition of Mpro activity” value at Mpro [1] is on record as “completely inhibited”. The Toxicity in cells result in the series on Vero E6 cells [5] is on record as “toxic”.

In the case of `CC(C)=CCc1cc([C@@H]2CC(=O)c3c(O)cc(O)cc3O2)cc(CC=C(C)C)c1O` [abyssinone V], the remaining activity at 17 µM at SARS-CoV-2 M^pro (setting [8]) was greater than 80%.

Take `O=c1cc(-c2ccc(O)cc2)oc2cc(O)cc(O)c12` [apigenin]: the “Inhibition … (in words)” value in the series with SARS-CoV-2 [3] was “inhibits viral replication at concentrations at doses that are not toxic”. For the same molecule, in the series on SARS-CoV-2 [3] (50 μM), the “Inhibition of SARS-CoV-2 replication at 50 μM” value was “somewhat better than baicalein”. Besides, at SARS-CoV-2 M^pro, the “Mpro inhibitory activity” value is “somewhat less potent”. The same molecule showed a pIC50 against SARS-CoV-2 M^pro (IC50 for inhibition of Mpro) of 4.76. For the same molecule, in the series on Vero E6 cells [6], the Toxicity in cells entry is “some toxicity”. Besides, the “Reversibility of Mpro inhibition by dilution” value on Mpro [2] is “completely reversible”.

For the molecule `COc1ccc(-c2cc(=O)c3c(O)cc(O)cc3o2)cc1-c1c(O)cc(O)c2c(=O)cc(-c3ccc(O)cc3)oc12` [bilobetin], on SARS-CoV-2 M^pro, the “Mpro inhibitory activity” value was “comparable to amentoflavone”.

In the case of `COc1c(-c2ccc(O)c(O)c2)oc2c(CC=C(C)C)c(O)c(CC=C(C)C)c(O)c2c1=O` [broussoflavonol B], the remaining activity at 17 µM on SARS-CoV-2 M^pro (setting [8]) was greater than 80%.

For the molecule `CC(C)=CCc1cc(-c2oc3cc(O)c(CC=C(C)C)c(O)c3c(=O)c2O)cc(O)c1O` [broussonol E], the remaining activity at 17 µM at SARS-CoV-2 M^pro (setting [8]) was greater than 80%.

As to `CC(C)=CCc1cc([C@H]2Oc3cc(O)cc(O)c3C(=O)[C@@H]2O)c(O)c(CC=C(C)C)c1O` [cathayanon I], the remaining activity at 17 µM at SARS-CoV-2 M^pro (setting [8]) was in the range of 10 to 80%.

For `CC(C)=CCc1c2c(c(O)c3c(=O)c(-c4ccc(O)c(O)c4)coc13)CC(C(C)(C)O)O2` (stereo not drawn) [furowanin A], on SARS-CoV-2 M^pro (setting [7]), the remaining activity at 17 µM lay within 10 to 80%. Further, the pIC50 on SARS-CoV-2 M^pro (setting [9]) is 5.15.

Turning to `CC(C)=CCc1cc(-c2coc3cc(O)cc(O)c3c2=O)cc(O)c1O` [glycyrrhisoflavone], the remaining activity at 17 µM at SARS-CoV-2 M^pro (setting [7]) was greater than 80%.

With `C=C(C)[C@H](CC=C(C)C)Cc1c(O)c(CC=C(C)C)c(O)c2c1O[C@H](c1ccc(O)cc1O)[C@@H](O)C2=O` [kushenol M], the remaining activity at 17 µM on SARS-CoV-2 M^pro (setting [8]) was greater than 80%.

`CC(C)=CCC/C(C)=C/Cc1cc(C2CC(=O)c3c(O)cc(O)cc3O2)c(O)cc1O` (stereo not drawn) [kuwanon E]: the remaining activity at 17 µM at SARS-CoV-2 M^pro (setting [8]) fell in the range of 10 to 80%.

Regarding `C=C(C)C(O)Cc1c(O)c(CC=C(C)C)c2occ(-c3ccc(O)c(O)c3)c(=O)c2c1O` (stereo not drawn) [millewanin G], the remaining activity at 17 µM on SARS-CoV-2 M^pro (setting [8]) is greater than 80%.

Turning to `C=C(C)C(O)Cc1c(O)c(CC=C(C)C)c(O)c2c(=O)c(-c3ccc(O)c(O)c3)coc12` (stereo not drawn) [millewanin H], the remaining activity at 17 µM at SARS-CoV-2 M^pro (setting [8]) was in the range of 10 to 80%.

As to `O=c1c(O)c(-c2ccc(O)cc2O)oc2cc(O)cc(O)c12` [morin], on SARS-CoV-2 M^pro (setting [7]), the remaining activity at 17 µM was greater than 80%.

For the molecule `O=c1c(O)c(-c2cc(O)c(O)c(O)c2)oc2cc(O)cc(O)c12` [myricetin, reference compound], the “Inhibition … (in words)” value in the series on SARS-CoV-2 [3] is reported as “somewhat less potently than PGHG, baicalein, or apigenin”; in the series with SARS-CoV-2 [3] (listed as Myricetin), “inhibitory activity only at 100 μM”. Also, the “Reversibility of Mpro inhibition by dilution” value at Mpro [2] was “resistant to dilution”.

For the molecule `CC(C)=CCc1c(O)cc(O)c2c1O[C@H](c1ccc(O)cc1)[C@@H](O)C2=O` [neophellamuretin], the remaining activity at 17 µM at SARS-CoV-2 M^pro (setting [8]) was greater than 80%.

On to `CC(C)=CCC/C(C)=C/Cc1c(O)ccc(C2CC(=O)c3c(O)cc(O)cc3O2)c1O` (stereo not drawn) [sanggenol A], for which the remaining activity at 17 µM on SARS-CoV-2 M^pro (setting [8]) lay in the range of 10 to 80%.

For the molecule `CC(C)=CCC/C(C)=C\Cc1c(O)cc(O)c2c1O[C@H](c1ccc(O)cc1O)CC2=O` [sophoraflavanone C], the remaining activity at 17 µM on SARS-CoV-2 M^pro (setting [7]) fell in the range of 10 to 80%. Besides, the pIC50 at SARS-CoV-2 M^pro (setting [9]) was 4.20.

With `CC(C)=CCc1c2c(c(O)c3c(=O)c(-c4ccc(O)cc4)coc13)C=CC(C)(C)O2` [warangalone], at SARS-CoV-2 M^pro (setting [8]), the remaining activity at 17 µM fell in the range of 10 to 80%.
